Reference: patent publication US11046945B2, “Labeled glutaminase proteins, isolated glutaminase protein mutants, methods of use, and kit” (CORNELL UNIVERSITY, priority 2013, dated 2021)

Target: T1, GAC (Mus musculus, UniProt D3Z7P3)
T1 construct: plasmid (residues 72-603 for GAC, 72-674 for KGA); His-tag with thrombin cleavage site (N, cleaved yes); made in house; host or cells: pET23a vector
T1 sequence (D3Z7P3 72-603 isoform D3Z7P3-2): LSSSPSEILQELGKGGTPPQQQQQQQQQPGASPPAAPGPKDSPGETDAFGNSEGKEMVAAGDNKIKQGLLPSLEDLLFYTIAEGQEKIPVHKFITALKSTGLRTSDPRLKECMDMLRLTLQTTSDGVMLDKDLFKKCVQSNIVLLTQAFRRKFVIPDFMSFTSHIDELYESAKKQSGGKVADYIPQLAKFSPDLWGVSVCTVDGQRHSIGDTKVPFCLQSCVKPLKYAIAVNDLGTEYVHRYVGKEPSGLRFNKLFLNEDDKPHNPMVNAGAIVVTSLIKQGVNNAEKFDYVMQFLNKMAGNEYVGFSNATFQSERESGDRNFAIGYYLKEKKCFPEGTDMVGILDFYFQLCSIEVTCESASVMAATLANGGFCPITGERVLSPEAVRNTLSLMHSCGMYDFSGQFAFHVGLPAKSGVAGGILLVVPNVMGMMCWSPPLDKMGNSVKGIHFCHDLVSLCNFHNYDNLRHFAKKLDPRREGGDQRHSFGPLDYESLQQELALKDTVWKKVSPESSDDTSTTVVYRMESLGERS
Test: Real-time glutaminase activity assay coupled to GDH (NADH fluorescence)
Type: biochemical
Settings: for inhibition of GAC activity: 10 nM 488-GAC or unlabeled WT-GAC, 20 mM glutamine, 50 mM phosphate
Method: [formula] where F is the normalized fluorescence at given drug concentration (i.e., F/F0), and Fsat is the normalized fluorescence at saturating concentrations of drug, as shown in FIG. 7A. Real-time activity assays were prepared in 1 mL samples, where 10 units of glutamate dehydrogenase (Sigma) and 2 mM NAD^+ (Sigma) was prepared in 50 mM Tris-Acetate pH=8.5, 0.1 mM EDTA and equilibrated at 20° C. 10 nM WT GAC was added and allowed to equilibrate 2 minutes before beginning to monitor fluorescence of 488-GAC (490 nm excitation, 520 nm emission) and NADH fluorescence (340 nm excitation, 490 nm emission). Appropriate dilutions of 968 or BPTES prepared in DMSO were injected after 30 seconds and allowed to equilibrate for 2 minutes before 180 μL of a solution of 333 mM K2HPO4, 133 mM glutamine, 50 mM Tris-Acetate pH 8.5, 0.1 mM EDTA was added to initiate GAC activation. The activity of GAC was indirectly measured by the NADH produced by the added glutamate dehydrogenase, which converts the product of glutaminase activity, glutamate, to α-ketoglutarate and ammonia through reducing NAD^+ to NADH. Because solutions containing glutamine undergo non-enzymatic degradation to glutamate, samples were further analyzed by subtracting the evolved NADH produced by glutaminase in the presence of 968, BPTES, or the equivalent volume of DMSO as a control, by the evolved NADH produced in the absence of glutaminase under identical experimental conditions. Evolved NADH was quantified using a standard curve of freshly prepared NADH (Sigma) in 50 mM Tris-Acetate pH=8.5, 0.1 mM EDTA.
Procedures for the described real-time binding and inhibition assays were adapted for 96-well microtiter format with minor alterations. Briefly, 2 μL of inhibitor or DMSO was distributed across the 96-well plate followed by addition of 200 μL 10 nM 488-GAC, unlabeled WT-GAC, or no added GAC as a negative control in 50 mM Tris-Acetate pH 8.5, 0.1 mM EDTA and immediate monitoring of 488 fluorescence (490 nm/520 nm excitation/emission, 5 nm/20 nm excitation/emission slits). […]

inhibition of GAC activity | inhibition of GAC activity at 5 nM versus 50 nM GAC (GAC decreased from 50 nM to 5 nM, 968 pre-incubated) | SMILES
potent inhibition |  | O=C(Cc1ccccc1)Nc1nnc(CCSCCc2nnc(NC(=O)Cc3ccccc3)s2)s1 [BPTES]
dose-dependent inhibition | higher efficacy and potency | CN(C)c1ccc(C2Nc3ccc4ccccc4c3C3=C2C(=O)CC(C)(C)C3)cc1Br (stereo not drawn) [compound 968]
